In patent US10759751B2, “Substituted spirocyclohexanes as muscarinic M1 receptor and/or M4 receptor agonists” (Heptares Therapeutics Limited, priority 2016, dated 2020):
Read-outs that look alike come from different tables or passages of the source.

What was measured:
Format in all cases: cell-based
[1] = biological target: T1, human muscarinic M3 receptor (Homo sapiens, UniProt P20309); assay: Alphascreen Surefire phospho-ERK1/2 functional assay, M3; details: for EC50: CHO cells stably expressing human M3, phospho-ERK1/2, read-out: pEC50 M3 (converted); for Emax: CHO, read-out: M3 % Emax cf. ACh
T1 construct: expressed in transfected cells
Description: (§1) Functional assays were performed using the Alphascreen Surefire phospho-ERK1/2 assay (Crouch & Osmond, Comb. Chem. High Throughput Screen, 2008). ERK1/2 phosphorylation is a downstream consequence of both Gq/11 and Gi/o protein coupled receptor activation, making it highly suitable for the assessment of M1, M3 (Gq/11 coupled) and M2, M4 receptors (Gi/o coupled), rather than using different assay formats for different receptor subtypes. CHO cells stably expressing the human muscarinic M1, M2, M3 or M4 receptor were plated (25K/well) onto 96-well tissue culture plates in MEM-alpha+10% dialysed FBS. Once adhered, cells were serum-starved overnight. Agonist stimulation was performed by the addition of 5 μL agonist to the cells for 5 min (37° C.). Media was removed and 50 μL of lysis buffer added. After 15 min, a 4 μL sample was transferred to 384-well plate and 7 μL of detection mixture added. Plates were incubated for 2 h with gentle agitation in the dark and then read on a PHERAstar plate reader.
(§2) pEC50 and Emax figures were calculated from the resulting data for each receptor subtype.

[2] = biological target: T2, human muscarinic M2 receptor (Homo sapiens, UniProt P08172); assay: Alphascreen Surefire phospho-ERK1/2 functional assay, M2; details: for EC50: CHO cells stably expressing human M2, phospho-ERK1/2, read-out: pEC50 M2 (converted); for Emax: CHO, read-out: M2 % Emax cf. ACh
T2 sequence (P08172 1-466): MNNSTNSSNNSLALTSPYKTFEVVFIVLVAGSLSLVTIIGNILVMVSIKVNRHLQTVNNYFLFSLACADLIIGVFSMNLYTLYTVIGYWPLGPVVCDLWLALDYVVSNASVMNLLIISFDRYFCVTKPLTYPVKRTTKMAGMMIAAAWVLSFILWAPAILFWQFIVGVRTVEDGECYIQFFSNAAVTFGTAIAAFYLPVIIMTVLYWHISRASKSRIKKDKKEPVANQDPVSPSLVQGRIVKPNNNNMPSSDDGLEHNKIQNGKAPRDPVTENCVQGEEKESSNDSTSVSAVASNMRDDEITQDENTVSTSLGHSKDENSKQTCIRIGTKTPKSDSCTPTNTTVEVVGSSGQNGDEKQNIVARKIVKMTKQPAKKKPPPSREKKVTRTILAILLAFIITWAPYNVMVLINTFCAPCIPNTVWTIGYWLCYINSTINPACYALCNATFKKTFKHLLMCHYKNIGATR
Description: as §1, §2

[3] = biological target: T3, human muscarinic M4 receptor (Homo sapiens, UniProt P08173); assay: Alphascreen Surefire phospho-ERK1/2 functional assay, M4; details: for EC50: phospho-ERK1/2, read-out: pEC50 M4 (converted); for Emax: CHO
T3 construct: expressed in transfected cells
T3 sequence (P08173 1-479): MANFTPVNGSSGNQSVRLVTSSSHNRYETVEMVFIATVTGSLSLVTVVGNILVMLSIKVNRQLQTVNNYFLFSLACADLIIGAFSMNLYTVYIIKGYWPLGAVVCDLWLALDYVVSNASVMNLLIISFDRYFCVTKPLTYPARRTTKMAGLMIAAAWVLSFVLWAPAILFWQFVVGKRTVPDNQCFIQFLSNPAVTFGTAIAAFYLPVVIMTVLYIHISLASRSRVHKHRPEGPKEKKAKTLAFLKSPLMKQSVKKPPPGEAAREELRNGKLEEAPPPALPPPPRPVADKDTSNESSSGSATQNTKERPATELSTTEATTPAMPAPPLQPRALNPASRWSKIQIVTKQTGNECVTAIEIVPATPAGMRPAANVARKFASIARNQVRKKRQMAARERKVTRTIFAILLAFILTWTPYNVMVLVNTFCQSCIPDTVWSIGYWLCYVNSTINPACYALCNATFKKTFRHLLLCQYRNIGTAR
Description: as §1, §2

[4] = biological target: T4, human muscarinic M1 receptor (Homo sapiens, UniProt P11229); assay: Alphascreen Surefire phospho-ERK1/2 functional assay, M1; details: for EC50: phospho-ERK1/2, read-out: pEC50 M1 (converted); for Emax: CHO
T4 sequence (P11229 1-460): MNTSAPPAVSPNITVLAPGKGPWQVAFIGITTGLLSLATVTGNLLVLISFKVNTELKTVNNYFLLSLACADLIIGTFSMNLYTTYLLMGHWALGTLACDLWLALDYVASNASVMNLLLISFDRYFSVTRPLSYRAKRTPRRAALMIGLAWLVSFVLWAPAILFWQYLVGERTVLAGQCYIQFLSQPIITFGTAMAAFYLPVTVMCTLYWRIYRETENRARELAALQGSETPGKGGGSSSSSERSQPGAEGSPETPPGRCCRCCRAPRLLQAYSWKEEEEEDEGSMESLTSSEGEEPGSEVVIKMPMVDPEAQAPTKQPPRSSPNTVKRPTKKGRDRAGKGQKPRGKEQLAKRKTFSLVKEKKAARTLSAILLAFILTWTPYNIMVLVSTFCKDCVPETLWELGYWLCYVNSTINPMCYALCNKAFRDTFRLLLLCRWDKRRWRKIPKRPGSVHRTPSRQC
In short: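 Steps: plate CHO cells stably expressing the receptor in MEM-alpha with 10% dialysed FBS; starve overnight; add agonist for 5 min at 37 °C; lyse for 15 min; incubate the lysate with SureFire detection reagents for 2 h; read. The outputs are pEC50 and Emax.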

[5] = CHO cells stably expressing human M4
[6] = read-out: M4 % Emax cf. ACh, CHO cells stably expressing human M4, Emax relative to ACh
[7] = CHO cells stably expressing human M1
[8] = read-out: M1 % Emax cf. ACh, CHO cells stably expressing human M1, Emax relative to ACh

T1 sequence (P20309 whole entry): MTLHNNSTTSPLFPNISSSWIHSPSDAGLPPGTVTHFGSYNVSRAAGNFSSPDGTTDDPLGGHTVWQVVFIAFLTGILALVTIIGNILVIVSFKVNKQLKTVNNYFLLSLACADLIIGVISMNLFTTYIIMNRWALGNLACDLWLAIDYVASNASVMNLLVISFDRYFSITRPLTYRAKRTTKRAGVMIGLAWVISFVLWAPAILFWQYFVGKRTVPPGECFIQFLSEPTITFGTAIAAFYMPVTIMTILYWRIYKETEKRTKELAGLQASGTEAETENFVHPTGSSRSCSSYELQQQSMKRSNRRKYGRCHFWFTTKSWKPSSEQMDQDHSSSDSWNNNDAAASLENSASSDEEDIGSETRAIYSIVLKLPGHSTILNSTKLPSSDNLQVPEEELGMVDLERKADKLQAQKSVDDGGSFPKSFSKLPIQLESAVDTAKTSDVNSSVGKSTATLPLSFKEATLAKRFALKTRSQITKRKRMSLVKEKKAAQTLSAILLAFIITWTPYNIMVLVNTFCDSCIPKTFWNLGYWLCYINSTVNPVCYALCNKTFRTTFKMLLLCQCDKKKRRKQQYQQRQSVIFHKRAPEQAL

Compound	EC50 [1] [µM]	Emax [1] [%]	EC50 [2] [µM]	Emax [2] [%]	EC50 [3, 5] [µM]	Emax [3, 6] [%]	EC50 [4, 7] [µM]	Emax [4, 8] [%]	Emax ([3]; read-out: M4 % Emax cf. ACh) [%]	Emax ([4]; read-out: M1 % Emax cf. ACh) [%]	M4 % Emax cf. ACh ([3]; CHO cells stably expressing human M4, Emax relative to ACh) [%]	M1 % Emax cf. ACh ([4]; CHO cells stably expressing human M1, Emax relative to ACh) [%]
CCOC(=O)N1CCCN(C2CCC(C#N)(c3ccc(C(F)(F)F)cn3)CC2)CC1 (mixture of isomers) [3-21 mixture of isomers]	> 20	2	> 20	3	> 20	53	0.724	90	–	–	–	–
COC(=O)N1CCCN(C2CCC(C#N)(c3ccccc3)CC2)CC1 (mixture of isomers) [3-28 mixture of isomers]	> 20	7	> 20	15	0.245	91	0.776	116	–	–	–	–
N#CC1(c2ccccc2)CCC(N2CCCN(C(=O)OCCF)CC2)CC1 (mixture of isomers) [3-29 mixture of isomers]	> 20	3	> 20	3	0.2	68	0.537	75	–	–	–	–
CCOC(=O)N[C@H]1CCN(C2CCC(C#N)(c3ccccc3)CC2)C1 (single isomer, unassigned) [1-1 Isomer 2]	> 20	18	> 20	3	> 20	18	0.0513	117	–	–	–	–
CCOC(=O)N[C@@H]1CCN(C2CCC(C#N)(c3ccccc3)CC2)C1 (single isomer, unassigned) [1-2 Isomer 2]	> 20	1	> 20	23	0.741	52	0.209	102	–	–	–	–
CCOC(=O)N[C@H]1CCN(C2CCC(C#N)(c3cccc(F)c3)CC2)C1 (single isomer, unassigned) [1-3 Isomer 2]	> 20	1	> 20	0	> 20	13	0.0309	119	–	–	–	–
CCOC(=O)N[C@H]1CCN(C2CCC(C#N)(c3ccc(F)cc3)CC2)C1 (single isomer, unassigned) [1-4 Isomer 2]	> 20	8	> 20	3	> 20	7	0.0355	98	–	–	–	–
CCOC(=O)N[C@@H]1CCN(C2CCC(C#N)(c3ccccc3F)CC2)C1 (single isomer, unassigned) [1-5 Isomer 2]	> 20	33	> 20	5	> 20	46	0.115	125	–	–	–	–
CCOC(=O)N[C@H]1CCN(C2CCC(C#N)(c3cccc(C)c3)CC2)C1 (single isomer, unassigned) [1-9 Isomer 2]	> 20	2	> 20	6	> 20	12	0.0275	99	–	–	–	–
CCOC(=O)N[C@H]1CCN(C2CCC(C#N)(c3cccc(Cl)c3)CC2)C1 (single isomer, unassigned) [1-10 Isomer 2]	> 20	9	> 20	6	> 20	24	0.0282	106	–	–	–	–
CCOC(=O)N[C@H]1CCN(C2CCC(C#N)(c3cccc(OC)c3)CC2)C1 (single isomer, unassigned) [1-11 Isomer 2]	> 20	1	> 20	0	> 20	9	0.148	99	–	–	–	–
CCOC(=O)N[C@H]1CCN(C2CCC(C#N)(c3ccc(F)cn3)CC2)C1 (single isomer, unassigned) [1-14 Isomer 2]	> 20	0	> 20	2	> 20	32	0.123	89	–	–	–	–
CCOC(=O)N(C)[C@H]1CCN(C2CCC(C#N)(c3ccccc3)CC2)C1 (single isomer, unassigned) [1-20 Isomer 2]	> 20	0	> 20	0	> 20	–	0.148	–	19	78	–	–
CCOC(=O)N(C)[C@@H]1CCN(C2CCC(C#N)(c3ccccc3)CC2)C1 (single isomer, unassigned) [1-21 Isomer 2]	> 20	5	> 20	1	> 20	–	0.11	–	15	64	–	–
CCOC(=O)N[C@H]1CCN(C2CCC3(CC2)C(=O)Nc2ccccc23)C1 (single isomer, unassigned) [2-1 isomer 1]	> 20	4	> 20	2	> 20	10	0.0741	74	–	–	–	–
CCOC(=O)N[C@H]1CCN(C2CCC3(CC2)C(=O)Nc2cc(C)ccc23)C1 (single isomer, unassigned) [2-4 isomer 1]	> 15.8	11	> 15.8	3	> 15.8	11	0.0661	65	–	–	–	–
CCOC(=O)N[C@H]1CCN(C2CCC3(CC2)C(=O)Nc2ccc(C)cc23)C1 (single isomer, unassigned) [2-5 isomer 1]	> 20	15	> 20	13	> 15.8	5	0.00776	49	–	–	–	–
CCOC(=O)N[C@H]1CCN(C2CCC3(CC2)C(=O)Nc2cccc(C)c23)C1 (single isomer, unassigned) [2-6 isomer 1]	> 20	16	> 20	11	0.0603	54	0.186	66	–	–	–	–
CCOC(=O)N[C@H]1CCN(C2CCC3(CC2)C(=O)Nc2cc(F)ccc23)C1 (single isomer, unassigned) [2-7 isomer 2]	> 20	2	> 20	5	> 20	–	0.0525	–	–	–	16	89
